For this test, the target named is Angiotensin-converting enzyme (Homo sapiens, UniProt P12821). Briefly: Binding affinity against Angiotensin I converting enzyme.

This passage reports Ki results from ChEMBL document CHEMBL1127183, “Synthesis of 6-amino-5-oxo-7-phenyl-1,4-oxazepines as conformationally constrained gauche () dipeptide mimetics” (Bioorg Med Chem Lett, 1993).

Sequence of Angiotensin-converting enzyme (P12821 whole entry): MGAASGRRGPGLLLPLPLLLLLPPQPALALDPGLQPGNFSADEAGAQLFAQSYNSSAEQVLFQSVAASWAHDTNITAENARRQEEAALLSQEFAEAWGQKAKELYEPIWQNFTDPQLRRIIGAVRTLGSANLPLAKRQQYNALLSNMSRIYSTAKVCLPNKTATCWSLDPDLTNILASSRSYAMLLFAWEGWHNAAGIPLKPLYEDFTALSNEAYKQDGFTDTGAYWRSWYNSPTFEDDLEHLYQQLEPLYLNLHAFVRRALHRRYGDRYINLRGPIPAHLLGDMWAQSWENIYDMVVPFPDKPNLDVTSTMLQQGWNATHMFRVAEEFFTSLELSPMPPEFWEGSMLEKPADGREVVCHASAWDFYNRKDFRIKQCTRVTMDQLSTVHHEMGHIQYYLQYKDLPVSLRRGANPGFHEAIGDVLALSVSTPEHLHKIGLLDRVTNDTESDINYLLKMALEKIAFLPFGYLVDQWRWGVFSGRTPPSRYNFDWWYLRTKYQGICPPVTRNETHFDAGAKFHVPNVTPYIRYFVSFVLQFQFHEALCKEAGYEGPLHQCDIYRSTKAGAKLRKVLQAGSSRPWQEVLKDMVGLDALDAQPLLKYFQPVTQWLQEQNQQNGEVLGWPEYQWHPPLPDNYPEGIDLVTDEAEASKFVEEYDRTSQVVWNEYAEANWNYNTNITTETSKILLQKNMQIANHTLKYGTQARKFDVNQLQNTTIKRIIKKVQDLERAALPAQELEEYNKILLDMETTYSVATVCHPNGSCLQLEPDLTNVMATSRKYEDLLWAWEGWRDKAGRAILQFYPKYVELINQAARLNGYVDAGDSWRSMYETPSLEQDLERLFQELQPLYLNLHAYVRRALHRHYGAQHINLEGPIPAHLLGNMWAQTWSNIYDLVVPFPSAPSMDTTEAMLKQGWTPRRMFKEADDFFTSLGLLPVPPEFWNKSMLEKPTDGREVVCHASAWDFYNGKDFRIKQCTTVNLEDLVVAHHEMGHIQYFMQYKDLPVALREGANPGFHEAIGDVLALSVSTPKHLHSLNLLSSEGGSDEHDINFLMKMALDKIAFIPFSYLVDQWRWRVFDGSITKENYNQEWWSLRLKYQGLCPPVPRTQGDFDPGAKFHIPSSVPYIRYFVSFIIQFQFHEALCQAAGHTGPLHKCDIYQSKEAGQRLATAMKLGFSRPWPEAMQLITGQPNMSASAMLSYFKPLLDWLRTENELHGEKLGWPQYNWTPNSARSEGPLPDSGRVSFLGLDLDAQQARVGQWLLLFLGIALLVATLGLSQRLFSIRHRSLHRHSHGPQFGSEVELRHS

As usually defined, the Ki is the equilibrium dissociation constant of an inhibitor or competing ligand from its target. The low end stands for a stronger hold on the target, the high end for a looser hold on the target. The compound `CC(C)C[C@H](C(=O)O)N1CCO[C@@H](c2ccccc2)[C@H](NC(=O)[C@H](S)Cc2ccccc2)C1=O` showed a Ki of 50 µM.
